The target of one data set is T1, human Nav1.7 (Homo sapiens, UniProt Q15858).
T1 construct: expressed in transfected cells; host or cells: HEK 293
In words: Nav 1.7 In Vitro PX Assay (PatchXpress whole cell voltage clamp, partially inactivated state). The format is cell-based. The note with it: HEK 293 cells stably transfected with human Nav1.7, holding potential yielding 20 to 50% inactivation, read-out: hNav1.7 PX IC50. How it is done:
Nav 1.7 In Vitro PX Assay
HEK 293 cells stably transfected with human Nav1.7 were recorded in whole cell voltage clamp mode with the PatchXpress automated electrophysiology system (Molecular Devices, LLC, Sunnyvale, Calif.). Compound effects were measured on a partially inactivated state of the sodium channel Cells were clamped to a holding potential yielding 20 to 50% inactivation. To elicit sodium current, channels were activated by pulsing to −10 mV for 20 msec. This voltage protocol was repeated at a rate of 0.1 Hz throughout the experiment. A single concentration of test compound was applied to cells for a duration of 3 minutes. Peak sodium current was measured at the end of the compound addition period to determine percent inhibition. Three to five cells were tested per concentration, and IC50 curves were fitted to percent inhibition as a function of concentration.

In the next data set the target is T2, hNav1.7 (Homo sapiens, UniProt Q15858).
T2 construct: expressed in transfected cells; host or cells: HEK 293
Briefly: Nav 1.7 IWQ In Vitro Assay (IonWorks Quattro population patch-clamp). The format is cell-based. The note with it: HEK 293 cells stably transfected with Nav 1.7, 26th pulse to -20 mV. How it is done:
Nav 1.7 or Nav 1.5 IWQ In Vitro Assay
HEK 293 Cells stably transfected with either Nav 1.7 or Nav 1.5 were recorded in population patch-clamp mode with the IonWorks® Quattro automated electrophysiology system in accordance with the manufacturer's specifications (Molecular Devices, LLC, Sunnyvale, Calif.). Sodium channel currents were measured in response to a train of depolarizations that induced successively greater inactivation.
Cells were held at −110 mV for three seconds (Nav 1.7) or half a second (Nav 1.5) from a holding voltage of −15 mV, then put through a series of 26 pulses of 150 msec duration to −20 mV at a frequency of 5 Hz. Cells were then left unclamped for a period of 3 to 8 minutes while a single concentration of test compound was added. Cells were then reclamped and put through the same voltage protocol. Current at the end of the 26th pulse to −20 mV was subtracted from the peak current evoked by the 26th pulse to −20 mV to correct for leak current. Percent block was calculated for each concentration in duplicate, and IC50 curves were fitted to percent block as a function of concentration.

The next data set in a line: HLM in vitro. The format is in vitro ADME, human.
The target of another data set is T3, human PXR (Homo sapiens, UniProt O75469).
T3 sequence (O75469 1-434): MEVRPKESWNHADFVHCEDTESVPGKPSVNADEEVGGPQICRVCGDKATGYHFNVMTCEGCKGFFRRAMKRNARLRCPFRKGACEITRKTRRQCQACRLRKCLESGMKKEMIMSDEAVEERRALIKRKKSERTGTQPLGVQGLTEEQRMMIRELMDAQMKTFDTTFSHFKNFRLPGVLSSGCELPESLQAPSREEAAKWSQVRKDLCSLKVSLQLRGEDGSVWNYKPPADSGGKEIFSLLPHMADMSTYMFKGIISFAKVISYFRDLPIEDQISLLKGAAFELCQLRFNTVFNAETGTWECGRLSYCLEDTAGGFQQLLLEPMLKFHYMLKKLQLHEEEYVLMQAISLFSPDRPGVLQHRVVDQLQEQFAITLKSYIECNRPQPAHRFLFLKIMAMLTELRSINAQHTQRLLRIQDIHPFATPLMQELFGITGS
In words: Human PXR @ 2 uM POC. The format is in vitro ADME.

Some results are limits rather than exact numbers.

A word on the IC50: it is the concentration that gives 50% inhibition.

T2 sequence (Q15858 whole entry): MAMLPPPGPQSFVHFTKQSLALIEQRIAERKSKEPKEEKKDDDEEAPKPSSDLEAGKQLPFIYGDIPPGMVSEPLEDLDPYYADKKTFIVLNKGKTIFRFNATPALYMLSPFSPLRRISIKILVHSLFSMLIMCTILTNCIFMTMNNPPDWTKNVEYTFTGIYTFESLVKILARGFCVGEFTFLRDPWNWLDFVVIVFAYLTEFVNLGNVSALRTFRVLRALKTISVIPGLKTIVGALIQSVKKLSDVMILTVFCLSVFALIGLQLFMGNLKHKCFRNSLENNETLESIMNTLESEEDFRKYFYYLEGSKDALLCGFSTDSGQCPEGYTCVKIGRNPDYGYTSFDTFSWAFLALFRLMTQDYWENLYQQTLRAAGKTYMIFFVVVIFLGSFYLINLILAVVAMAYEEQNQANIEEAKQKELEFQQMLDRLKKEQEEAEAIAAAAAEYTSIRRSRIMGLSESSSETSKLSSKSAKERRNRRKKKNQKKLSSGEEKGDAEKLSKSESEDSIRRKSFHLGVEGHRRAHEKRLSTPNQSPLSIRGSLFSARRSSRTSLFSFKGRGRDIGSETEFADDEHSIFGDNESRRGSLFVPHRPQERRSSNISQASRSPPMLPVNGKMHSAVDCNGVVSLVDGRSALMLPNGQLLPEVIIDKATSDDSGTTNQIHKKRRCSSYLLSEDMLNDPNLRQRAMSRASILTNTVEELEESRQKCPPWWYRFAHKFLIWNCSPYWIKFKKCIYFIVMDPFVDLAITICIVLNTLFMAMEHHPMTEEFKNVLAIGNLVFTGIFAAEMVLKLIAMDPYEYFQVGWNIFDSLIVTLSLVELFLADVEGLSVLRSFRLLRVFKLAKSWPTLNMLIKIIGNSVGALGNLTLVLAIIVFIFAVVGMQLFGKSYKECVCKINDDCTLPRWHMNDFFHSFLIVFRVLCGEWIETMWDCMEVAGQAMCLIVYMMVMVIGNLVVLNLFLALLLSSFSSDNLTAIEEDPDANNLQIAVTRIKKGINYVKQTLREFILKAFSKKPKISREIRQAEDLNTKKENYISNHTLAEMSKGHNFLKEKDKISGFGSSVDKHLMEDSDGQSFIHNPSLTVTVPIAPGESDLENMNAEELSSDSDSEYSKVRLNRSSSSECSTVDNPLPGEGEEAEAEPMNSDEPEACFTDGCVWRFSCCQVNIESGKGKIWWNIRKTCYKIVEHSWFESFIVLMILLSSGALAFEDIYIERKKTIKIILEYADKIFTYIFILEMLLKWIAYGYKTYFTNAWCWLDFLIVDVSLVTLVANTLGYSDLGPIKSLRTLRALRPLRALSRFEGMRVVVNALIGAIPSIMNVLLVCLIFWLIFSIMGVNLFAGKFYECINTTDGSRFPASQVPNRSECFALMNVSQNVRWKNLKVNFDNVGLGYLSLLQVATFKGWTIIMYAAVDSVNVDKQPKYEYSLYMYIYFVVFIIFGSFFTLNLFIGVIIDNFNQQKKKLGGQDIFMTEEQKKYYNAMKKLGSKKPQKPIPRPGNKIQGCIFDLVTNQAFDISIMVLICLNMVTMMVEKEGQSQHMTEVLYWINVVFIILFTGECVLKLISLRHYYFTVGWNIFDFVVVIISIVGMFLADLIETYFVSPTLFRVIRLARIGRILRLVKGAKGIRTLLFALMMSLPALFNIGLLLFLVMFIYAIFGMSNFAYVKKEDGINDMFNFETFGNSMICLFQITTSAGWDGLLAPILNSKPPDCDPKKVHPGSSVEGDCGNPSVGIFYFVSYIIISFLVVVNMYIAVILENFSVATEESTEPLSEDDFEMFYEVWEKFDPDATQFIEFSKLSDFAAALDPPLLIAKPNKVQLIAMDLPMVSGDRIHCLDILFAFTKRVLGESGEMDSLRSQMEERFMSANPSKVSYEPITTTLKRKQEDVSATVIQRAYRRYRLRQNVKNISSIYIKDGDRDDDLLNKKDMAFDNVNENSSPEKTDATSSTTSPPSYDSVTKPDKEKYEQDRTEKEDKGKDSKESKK
T1 sequence (Q15858 whole entry): as above

In the case of `COc1cc(CCCC(F)(F)F)c(F)cc1-n1c(=O)ccc2cc(S(=O)(=O)Nc3ccon3)ccc21` (atropisomer, axis not shown; (P)) [Example 5, (P)-1-(5-fluoro-2-methoxy-4-(4,4,4-trifluorobutyl)phenyl)-N-(isoxazol-3-yl)-2-oxo-1,2-dihydroquinoline-6-sulfonamide], the IC50 came out at 870 nM on human Nav1.7 and 2 nM against hNav1.7. In “HLM in vitro”, this molecule gave an HLM in vitro below 14.0 µL/min/mg. For the same molecule, the “human PXR @ 2 uM POC S” value on human PXR is reported as 1.87%.

For `COc1cc(CC(F)(F)F)c(F)cc1-n1c(=O)ccc2cc(S(=O)(=O)Nc3ccon3)ccc21` (racemic) [Example 6A, 1-(5-fluoro-2-methoxy-4-(2,2,2-trifluoroethyl)phenyl)-N-(isoxazol-3-yl)-2-oxo-1,2-dihydroquinoline-6-sulfonamide], the IC50 on human Nav1.7 is 320 nM; on hNav1.7, 1.78 nM. The same molecule displayed an HLM in vitro in the data set “HLM in vitro” below 14.0 µL/min/mg. For the same molecule, the “human PXR @ 2 uM POC S” value on human PXR was −1.12%.

On to `COc1cc(CC(F)(F)F)c(F)cc1-n1c(=O)ccc2cc(S(=O)(=O)Nc3ccon3)ccc21` (atropisomer, axis not shown; (P)) [Example 6B, (P)-1-(5-fluoro-2-methoxy-4-(2,2,2-trifluoroethyl)phenyl)-N-(isoxazol-3-yl)-2-oxo-1,2-dihydroquinoline-6-sulfonamide], for which the IC50 was found to be 84.4 nM on human Nav1.7 and 5.3 nM at hNav1.7. The molecule further came in with an HLM in vitro in the data set “HLM in vitro” below 14.0 µL/min/mg. Also, the “human PXR @ 2 uM POC S” value on human PXR is reported as −2.42%.

On to `COc1cc(CCC(F)(F)F)c(F)cc1-n1c(=O)ccc2cc(S(=O)(=O)Nc3cccnn3)ccc21` (atropisomer, axis not shown; (P)) [Example 3, (P)-1-(5-fluoro-2-methoxy-4-(3,3,3-trifluoropropyl)phenyl)-2-oxo-N-(Pyridazin-3-yl)-1,2-dihydroquinoline-6-sulfonamide], for which the values for the IC50 on human Nav1.7 and against hNav1.7 were 980 nM and 2 nM, respectively. In addition, the HLM in vitro in the data set “HLM in vitro” is below 14.0 µL/min/mg. For the same molecule, the “human PXR @ 2 uM POC S” value at human PXR was 3.20%.

Turning to `COc1cc(CCC(F)(F)F)c(Cl)cc1-n1c(=O)ccc2cc(S(=O)(=O)Nc3ccon3)ccc21` (atropisomer, axis not shown; (P)) [Example 2, (P)-1-(5-chloro-2-methoxy-4-(3,3,3-trifluoropropyl)phenyl)-N-(isoxazol-3-yl)-2-oxo-1,2-dihydroquinoline-6-sulfonamide], the IC50 is 80 nM at human Nav1.7 and 5 nM at hNav1.7. In the data set “HLM in vitro”, this molecule displayed an HLM in vitro below 14.0 µL/min/mg. For the same molecule, the “human PXR @ 2 uM POC S” value at human PXR is on record as 2.38%.

Take `COc1cc(C[C@@H](C)C(F)(F)F)c(F)cc1-n1c(=O)ccc2cc(S(=O)(=O)Nc3ccon3)ccc21` (racemic) [Example 4, (P)-1-(5-fluoro-2-methoxy-4-(3,3,3-trifluoro-2-methylpropyl)phenyl)-N-(isoxazol-3-yl)-2-oxo-1,2-dihydroquinoline-6-sulfonamide]: the half-inhibitory concentration (IC50) at human Nav1.7 was found to be 720 nM; against hNav1.7, 12 nM. In the data set “HLM in vitro”, this molecule came in with an HLM in vitro below 14.0 µL/min/mg. Besides, the “human PXR @ 2 uM POC S” value at human PXR is −0.04%.

In the case of `COc1cc(CCC(F)(F)F)c(F)cc1-n1c(=O)ccc2cc(S(=O)(=O)Nc3ccon3)ccc21` (atropisomer, axis not shown; (P)) [Example 1, (P)-1-(5-fluoro-2-methoxy-4-(3,3,3-trifluoropropyl)phenyl)-N-(isoxazol-3-yl)-2-oxo-1,2-dihydroquinoline-6-sulfonamide], the IC50 at human Nav1.7 stood at 320 nM; at hNav1.7, 2 nM. In “HLM in vitro”, the HLM in vitro is <14.0 [2] μL/(min · mg). In addition, the “human PXR @ 2 uM POC S” value at human PXR turned out to be 0.22%.

Values taken from patent publication US10383866B2, “Alkyl dihydroquinoline sulfonamide compounds” (AMGEN INC., priority 2015, dated 2019).
